The text below walks through data of patent US5059627A, “Nerve growth factor secretion inducing composition” (Takeda Chemical Industries, Ltd., priority 1989, dated 1991).

One data set is described as follows: in vivo. The following applies: mouse, po.
The test system of a further data set is mice. The following applies: po, groups of 10.

`Cc1cc(O)c(C)c(C)c1O` [2,3,5-Trimethyl-1,4-hydroquinone, 2,3,5-trimethyl-1,4-hydroquinone] came in with an LD50 in the data set “in vivo” above 500 mg/kg. `COc1c(O)c(C)c(CCCCCCCCCCO)c(O)c1OC` [6-(10-hydroxydecyl)-2,3-dimethoxy-5-methyl-1,4-hydroquinone] returned an LD50 in “in vivo” above 1000 mg/kg. With `COC1=C(OC)C(=O)C(C/C=C(\C)CCC=C(C)C)=C(C)C1=O` [Ubiquinone-2, ubiquinone-2], in the data set “in vivo”, the LD50 was above 500 mg/kg.

In turn, `CC1=CC(=O)c2ccccc2C1=O` [Vitamin K0, vitamin K0] displayed an LD50 with mice of 500 mg/kg.
